Measurements as given in patent US7754896B2, “Indol-alanine derivatives as selective S1P4-agonists” (Novartis AG, priority 2004, dated 2010).

Target: T1, S1P4 (Homo sapiens, UniProt O95977)
T1 construct: expressed in transfected cells
T1 sequence (O95977 1-384): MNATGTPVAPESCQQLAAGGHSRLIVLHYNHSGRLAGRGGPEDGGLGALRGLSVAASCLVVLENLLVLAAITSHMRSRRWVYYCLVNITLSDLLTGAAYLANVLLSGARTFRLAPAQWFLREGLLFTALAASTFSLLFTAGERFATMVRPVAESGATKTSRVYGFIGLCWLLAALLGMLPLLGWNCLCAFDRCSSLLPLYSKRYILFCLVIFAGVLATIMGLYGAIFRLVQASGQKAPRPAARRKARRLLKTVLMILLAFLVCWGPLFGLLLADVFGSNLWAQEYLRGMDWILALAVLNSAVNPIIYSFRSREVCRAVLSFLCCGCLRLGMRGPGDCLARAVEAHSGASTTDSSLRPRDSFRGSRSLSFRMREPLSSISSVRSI
Assay: EC50 for S1P4 'in this assay' (GTPγS binding or calcium mobilization, not specified)
Type: cell-based
Details: assay format not specified ('this assay')
Description: The selection of the clones to be tested in the GTPγS assay is based on the real time PCR assays. CHO clones expressing large amounts of human S1P4 are used in these experiments. Membrane proteins are prepared as described above. The basic protocol of GTPγ^35S-binding assay used is described in a recent publication (Brinkmann et al. 2002, J. Biol. Chem, 277, 21453) with the modifications described here below. To characterize the GTPγ^35S-binding to membrane proteins from CHO cells expressing S1P, WGA coated PVT beads (SPA-bead, Amersham Biosciences) are used. Because β-rays of GTPγ^35S have […] in water solution, the plates are centrifuged to minimize non-specific effects caused by the non bound GTPγ^35S. The assay is performed in 96-well Optiplates (Packard, Cat. N^o 6005190) in final volume of 225 μl/well. […] The plates are then centrifuged for 10 minutes at 2000 rpm and counted with a TopCount instrument (Packard). […]
CHO cells are plated in black Costar plate (96 or 384 well, 50,000 cells or 12,500 cells, respectively) in a MEM with FCS and cultured for 20-24 h at 37° C. in a CO2 incubator. […] After measuring the baseline for 40 sec, the agonist in HBSS is added and the fluorescence is measured at intervals of 2 sec for 3 to 5 min. […]

`CCc1ccccc1-c1cccc2[nH]c(C(=O)NC[C@@H](N)C(=O)O)cc12` [Example 1, 3-(4-(2-Ethylphenyl)-2-carboxamido-indole)-D-alanine] was tested, and the EC50 was 0.432 µM.
